These results are taken from PMC8511083 (European journal of medicinal chemistry, 2021).

In data set [1] the test system is panel of melanoma and breast cancer cell lines. Briefly: Average growth inhibition in panel of melanoma and breast cancer cell lines. The following applies: Homo sapiens, read-out: Average IC50, average of results obtained in all six cell lines. It counts as cell-based.
Data set [2] deals with T1, survivin (Homo sapiens, UniProt O15392). Put plainly: Western blot of IAPs and cleaved-PARP in A375 cells.
T1 sequence (O15392 whole entry): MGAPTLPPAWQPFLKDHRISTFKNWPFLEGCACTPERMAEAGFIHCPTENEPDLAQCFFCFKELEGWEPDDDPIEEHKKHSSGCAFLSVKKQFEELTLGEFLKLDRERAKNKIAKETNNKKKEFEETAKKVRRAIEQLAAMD
For the next data set, the system named is OVCAR3 and OVCAR8 cells. Briefly: Average growth inhibition in ovarian cancer cell lines. It counts as cell-based. Particulars: Homo sapiens, read-out: Average IC50.
Data set [3] has as its target T1, survivin. Briefly: Western blot of survivin in ovarian cancer cells. Particulars: OVCAR8, SKOV3 and OVCAR3 cells, 24 hr, 2 and 4 μM. In general terms: In western blotting, separated proteins are transferred to a membrane and probed.
A short description of data set [4]: Liver microsome stability assay, human. The following applies: human microsomes, 88 vs 51 min. On the technique in general: Liver microsomes are vesicles of endoplasmic reticulum, rich in cytochrome P450 enzymes.
The next data set has as its system A375 xenograft tumors. Put plainly: A375 subcutaneous melanoma xenograft model in NSG mice. It counts as in vivo, mouse. The following applies: 20 mg/kg IP, 3 times/week, 15 days, end of experiment, vs vehicle.
The next data set deals with MDA-MB-435. Briefly: In vitro antiproliferative. The following applies: Homo sapiens, MDA-MB-435, 72 h, read-out: IC50 MDA-MB-435. It counts as cell-based.
The subject of the next data set is MDA-MB-435/LCC6MDR1. Put plainly: In vitro antiproliferative. Type of data set: cell-based. The following applies: Homo sapiens, 72 h, read-out: IC50 MDA-MB-435/LCC6MDRI.

As for `Oc1c(CN2CCCC2)cc(Cn2cnc(-c3ccccc3)c2)c2cccnc12` [Compound 4a, 5-((4-phenyl-1H-imidazol-1-yl)methyl)-7-(pyrrolidin-1-ylmethyl)quinolin-8-ol], in data set [1], the IC50 was 4200 nM. Consider `Oc1c(CN2CCCC2)cc(COC2Cc3ccccc3C2)c2cccnc12` [Compound 4c, 5-(((2,3-dihydro-1H-inden-2-yl)oxy)methyl)-7-(pyrrolidin-1-ylmethyl)quinolin-8-ol], for which the IC50 in data set [1] turned out to be 2700 nM. Still for that read-out and setting: the same measure for `Oc1c(CN2CCCC2)cc(COC2CCc3ccccc3C2)c2cccnc12` (stereo not shown) [Compound 4d, 7-(pyrrolidin-1-ylmethyl)-5-(((1,2,3,4-tetrahydronaphthalen-2-yl)oxy)methyl)quinolin-8-ol]: 1900 nM.

As to `Oc1c(CN2CCCC2)cc(Cn2ncc(-c3ccc(Br)cc3)n2)c2cccnc12` [Compound 7a, 5-((4-(4-bromophenyl)-2H-1,2,3-triazol-2-yl)methyl)-7-(pyrrolidin-1-ylmethyl)quinolin-8-ol], the “apoptosis induction (cleaved-PARP, western blot)” value on survivin [2] (24 h) is given as “effectively induced apoptosis”. Besides, at survivin [2] (24 h, 1, 5 and 10 μM), the “levels of other IAPs (CIAP1, XIAP, Livin; western blot)” value was “minimally affected” and the “survivin protein levels (western blot)” value is “selectively suppressed survivin levels”. Also, the IC50 in data set [1] came to 2000 nM. Also, the IC50 in the data set with OVCAR3 and OVCAR8 cells turned out to be 1300 nM.

As to `Oc1c(CN2CCCC2)cc(Cn2ncc(-c3ccc(C(F)(F)F)cc3)n2)c2cccnc12` [Compound 7b, 7-(pyrrolidin-1-ylmethyl)-5-((4-(4-(trifluoromethyl)phenyl)-2H-1,2,3-triazol-2-yl)methyl)quinolin-8-ol], the IC50 in data set [1] is 2400 nM.

As for `Cc1ccc(-c2cnn(Cc3cc(CN4CCCC4)c(O)c4ncccc34)n2)cc1` [Compound 7d, 7-(pyrrolidin-1-ylmethyl)-5-((4-(p-tolyl)-2H-1,2,3-triazol-2-yl)methyl)quinolin-8-ol], the IC50 in data set [1] was 1600 nM. Turning to `CCc1ccc(-c2cnn(Cc3cc(CN4CCCC4)c(O)c4ncccc34)n2)cc1` [Compound 7e, 5-((4-(4-ethylphenyl)-2H-1,2,3-triazol-2-yl)methyl)-7-(pyrrolidin-1-ylmethyl)quinolin-8-ol], the IC50 in data set [1] came out at 2000 nM.

With `O=[N+]([O-])c1ccc(-c2cnn(Cc3cc(CN4CCCC4)c(O)c4ncccc34)n2)cc1` [Compound 7f, 5-((4-(4-nitrophenyl)-2H-1,2,3-triazol-2-yl)methyl)-7-(pyrrolidin-1-ylmethyl)quinolin-8-ol], the IC50 in data set [1] was 2400 nM. The same measure, in the same setting: the figure for `COc1ccc(-c2cnn(Cc3cc(CN4CCCC4)c(O)c4ncccc34)n2)cc1` [Compound 7g, 5-((4-(4-methoxyphenyl)-2H-1,2,3-triazol-2-yl)methyl)-7-(pyrrolidin-1-ylmethyl)quinolin-8-ol] is 2000 nM; for `N#Cc1ccc(-c2cnn(Cc3cc(CN4CCCC4)c(O)c4ncccc34)n2)cc1` [Compound 7h, 4-(2-((8-hydroxy-7-(pyrrolidin-1-ylmethyl)quinolin-5-yl)methyl)-2H-1,2,3-triazol-4-yl)benzonitrile] it is 3300 nM. Consider `Oc1c(CN2CCCC2)cc(Cn2ncc(-c3ccccc3Br)n2)c2cccnc12` [Compound 7j, 5-((4-(2-bromophenyl)-2H-1,2,3-triazol-2-yl)methyl)-7-(pyrrolidin-1-ylmethyl)quinolin-8-ol], for which the IC50 in data set [1] is 1700 nM. Take `Oc1c(CN2CCCC2)cc(Cn2ncc(-c3cccc(Br)c3)n2)c2cccnc12` [Compound 7k, 5-((4-(3-bromophenyl)-2H-1,2,3-triazol-2-yl)methyl)-7-(pyrrolidin-1-ylmethyl)quinolin-8-ol]: the “survivin protein accumulation (western blot)” value at survivin [3] is reported as “reduced the accumulation of survivin protein”. The IC50 in data set [1] stood at 1700 nM; with OVCAR3 and OVCAR8 cells it was 1100 nM. With `Oc1c(CN2CCCCC2)cc(Cn2ncc(-c3ccc(Br)cc3)n2)c2cccnc12` [Compound 12a, 5-((4-(4-bromophenyl)-2H-1,2,3-triazol-2-yl)methyl)-7-(piperidin-1-ylmethyl)quinolin-8-ol], the IC50 was found to be 1400 nM in data set [1]; 1100 nM in the data set with OVCAR3 and OVCAR8 cells. With `Oc1c(CN2CCCCC2)cc(Cn2ncc(-c3ccc(C(F)(F)F)cc3)n2)c2cccnc12` [Compound 12b, 7-(piperidin-1-ylmethyl)-5-((4-(4-(trifluoromethyl)phenyl)-2H-1,2,3-triazol-2-yl)methyl)quinolin-8-ol], the “improvement of metabolic stability over MX-106” value in data set [4] is reported as 1.7 fold. Moreover, the “reduction of tumor weight” value in the data set with A375 xenograft tumors is listed as “approximately 32%”.

Turning to `CCN(CC)Cc1cc(Cn2ncc(-c3ccc(C(F)(F)F)cc3)n2)c2cccnc2c1O` [Compound 12d, 7-((diethylamino)methyl)-5-((4-(4-(trifluoromethyl)phenyl)-2H-1,2,3-triazol-2-yl)methyl)quinolin-8-ol], the IC50 in data set [1] came out at 3100 nM.

In the case of `Oc1c(CN2CCOCC2)cc(Cn2ncc(-c3ccc(Br)cc3)n2)c2cccnc12` [Compound 12e, 5-((4-(4-bromophenyl)-2H-1,2,3-triazol-2-yl)methyl)-7-(morpholinomethyl)quinolin-8-ol], the IC50 in data set [1] stood at 1700 nM.

For `Oc1c(CN2CCNCC2)cc(Cn2ncc(-c3ccc(Br)cc3)n2)c2cccnc12` [Compound 14, 5-((4-(4-bromophenyl)-2H-1,2,3-triazol-2-yl)methyl)-7-(piperazin-1-ylmethyl)quinolin-8-ol], in data set [1], the IC50 was 2600 nM. With `CC(C)c1ccc(COCc2cc(-c3ccccc3)c(O)c3ncccc23)cc1` [Compound 19a, 5-(((4-isopropylbenzyl)oxy)methyl)-7-phenylquinolin-8-ol], the “apoptosis induction (cleaved-PARP, western blot)” value on survivin [2] (24 h) was “effectively induced apoptosis”. The “survivin protein levels at 10 μM (western blot)” value on survivin [2] (24 h, 10 μM) is given as “did not show survivin downregulation”. Moreover, at survivin [2] (24 h, 1, 5 and 10 μM), the “survivin protein levels (western blot)” value is “selectively downregulated survivin”. For the same compound, in the data set on OVCAR3 and OVCAR8 cells, the IC50 turned out to be 2000 nM. Take `CC(C)c1ccc(COCc2cc(-c3cncc4ccccc34)c(O)c3ncccc23)cc1` [Compound 19b, 5-(((4-isopropylbenzyl)oxy)methyl)-7-(isoquinolin-4-yl)quinolin-8-ol]: the IC50 in data set [1] worked out at 900 nM. For `CC(C)c1ccc(COCc2cc(-c3ccnc4ccccc34)c(O)c3ncccc23)cc1` [Compound 19c, 5’-(((4-isopropylbenzyl)oxy)methyl)-[4,7’-biquinolin]-8’-ol], the IC50 in data set [1] stood at 1400 nM.

As for `Cc1ccc(-c2cc(COCc3ccc(C(C)C)cc3)c3cccnc3c2O)cc1` [Compound 19d, 5-(((4-isopropylbenzyl)oxy)methyl)-7-(p-tolyl)quinolin-8-ol], in data set [1], the IC50 stood at 1400 nM. On the same count and under the same terms, the figure for `Cc1cccc(-c2cc(COCc3ccc(C(C)C)cc3)c3cccnc3c2O)c1` [Compound 19e, 5-(((4-isopropylbenzyl)oxy)methyl)-7-(m-tolyl)quinolin-8-ol] is 1600 nM; for `COc1ccc(-c2cc(COCc3ccc(C(C)C)cc3)c3cccnc3c2O)cc1` [Compound 19f, 5-(((4-isopropylbenzyl)oxy)methyl)-7-(4-methoxyphenyl)quinolin-8-ol] it is 1400 nM; for `CC(C)c1ccc(COCc2cc(-c3ccc(C(F)(F)F)cc3)c(O)c3ncccc23)cc1` [Compound 19g, 5-(((4-isopropylbenzyl)oxy)methyl)-7-(4-(trifluoromethyl)phenyl)quinolin-8-ol] it is 2600 nM. In the case of `COCC[n+]1c2c(n(Cc3cnccn3)c1C)C(=O)c1ccccc1C2=O` [YM-155], the results for the IC50 in the data set with MDA-MB-435 and in the data set with MDA-MB-435/LCC6MDR1 were 2.4 ± 0.2 nM and over 1000 nM, respectively.
